Results published in US20220339160A1, “ADENOSINE RECEPTOR ANTAGONIST” (priority 2019, published 2022).
pIC50: −log10 of the molar value. Where two headings read alike, the source gives them in different places.

Tests used:
A2B receptor = target: T1, A2B receptor (Homo sapiens, UniProt P29275); test: cell-based
T1 sequence (P29275 1-332): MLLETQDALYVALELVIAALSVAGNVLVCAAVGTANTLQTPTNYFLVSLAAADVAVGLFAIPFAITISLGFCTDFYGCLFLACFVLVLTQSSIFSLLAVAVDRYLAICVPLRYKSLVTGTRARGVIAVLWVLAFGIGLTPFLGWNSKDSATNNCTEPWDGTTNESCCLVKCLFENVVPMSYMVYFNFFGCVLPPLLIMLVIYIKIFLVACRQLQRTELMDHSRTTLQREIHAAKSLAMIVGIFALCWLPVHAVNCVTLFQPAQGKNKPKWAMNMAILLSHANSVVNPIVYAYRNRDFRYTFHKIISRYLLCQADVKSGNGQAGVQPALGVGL
Experimental: (§1) A2a/A2B Receptor Antagonist Functional Assay Test:
The A2A cell line was derived from PerkinElmer (Product ID: ES-011-C); the A2B cell line was derived from PerkinElmer (Product ID: ES-013-C). […] The corresponding amount of 5′-N-ethylcarboxamidoadenosine at EC80 activation concentration was transferred to each test well, and incubated for another 30 minutes at 37° C., 5% CO2, 95% humidity, then Eu-cAMP tracer working solution and Ulight-anti-cAMP working solution were added to the cell culture plate at 5 uL/well in sequence, and the cell plate fluorescence was read with Envision (excitation wavelength: 320 nm, emission wavelength: 665 nm and 615 nm). The corresponding inhibition rate in each well was obtained according to the following formula, and a sigmoidal dose-inhibition rate curve was plotted using a non-linear regression model to calculate the IC50 value.

A2A receptor = A2A receptor (Homo sapiens, UniProt P29274); test: A2A receptor antagonist functional assay (cAMP, A2A cell line); type: cell-based
Chain of A2A receptor (P29274 whole entry): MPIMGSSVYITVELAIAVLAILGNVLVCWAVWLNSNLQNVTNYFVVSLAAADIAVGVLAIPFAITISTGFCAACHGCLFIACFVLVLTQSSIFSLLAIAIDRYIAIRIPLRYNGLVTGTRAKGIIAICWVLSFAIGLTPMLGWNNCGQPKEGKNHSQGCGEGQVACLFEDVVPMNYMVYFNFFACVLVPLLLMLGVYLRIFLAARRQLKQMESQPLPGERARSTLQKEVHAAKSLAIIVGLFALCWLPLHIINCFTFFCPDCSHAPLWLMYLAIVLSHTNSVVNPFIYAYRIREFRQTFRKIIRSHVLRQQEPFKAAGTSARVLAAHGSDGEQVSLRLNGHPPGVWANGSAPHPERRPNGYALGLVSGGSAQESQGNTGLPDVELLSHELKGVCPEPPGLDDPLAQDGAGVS
Experimental: as §1
The A2A cell line was derived from PerkinElmer (Product ID: ES-011-C); the A2B cell line was derived from PerkinElmer (Product ID: ES-013-C). The experimental procedure was referred to ACS Medicinal Chemistry Letters (2011) 2, 213-218; the specific test was completed by Pharmaron Beijing Co., Ltd. with the following steps: 10 nL of compound stock in DMSO (10 mM) followed by 10 μL of A2A or A2B cell suspension (30000 cells/mL) were transferred to assay wells of a 384-well plate at room temperature and incubated for 20 minutes at room temperature. The corresponding amount of 5′-N-ethylcarboxamidoadenosine at EC80 activation concentration was transferred to each test well, and incubated for another 30 minutes at 37° C., 5% CO2, 95% humidity, then Eu-cAMP tracer working solution and Ulight-anti-cAMP working solution were added to the cell culture plate at 5 uL/well in sequence, and the cell plate fluorescence was read with Envision (excitation wavelength: 320 nm, emission wavelength: 665 nm and 615 nm). The corresponding inhibition rate in each well was obtained according to the following formula, and a sigmoidal dose-inhibition rate curve was plotted using a non-linear regression model to calculate the IC50 value.

[1] = A2A cell line (PerkinElmer ES-011-C), 5'-N-ethylcarboxamidoadenosine at EC80, cAMP readout, read-out: A2A Antagonistic function IC50
[2] = A2B cell line (PerkinElmer ES-013-C), 5'-N-ethylcarboxamidoadenosine at EC80, cAMP readout, read-out: A2B Antagonistic function IC50

Compound | pIC50 (A2B receptor) | pIC50 (A2A receptor) | pIC50 (A2A receptor; [1]) | pIC50 (A2A receptor; read-out: A2A Antagonistic function IC50) | pIC50 (A2B receptor; [2])
Cc1ccc(-c2nc(N)nc3c(Cc4ccc(F)cc4)cnn23)o1 [Compound 1] | 7.80 | 8.48 |  |  | 
COCc1cccc(Cc2cnn3c(-c4ccc(C)o4)nc(N)nc23)n1 [Compound 2] | 7.60 |  | 8.74 |  | 
COCc1cccc(Cc2cnn3c(-c4cccs4)nc(N)nc23)n1 [Compound 3] |  | 7.02 |  |  | 
COCc1cccc(Cc2cnn3c(-n4ccc(C)n4)nc(N)nc23)n1 [Compound 4] |  | 7.77 |  |  | 
Cc1ccc(-c2nc(N)nc3c(Cc4cccc(CO)n4)cnn23)o1 [Compound 5] | 7.78 |  | 8.28 |  | 
Cc1ccc(-c2nc(N)nc3c(Cc4cccc(CBr)n4)cnn23)o1 [Compound 6] |  | 7.99 |  |  | 
COCCOCc1cccc(Cc2cnn3c(-c4ccc(C)o4)nc(N)nc23)n1 [Compound 7] | 6.99 |  |  | 8.15 | 
COCCNCc1cccc(Cc2cnn3c(-c4ccc(C)o4)nc(N)nc23)n1 [Compound 8] |  | 7.51 |  |  | 6.93
Cc1ccc(-c2nc(N)nc3c(Cc4cccc(COC5CC5)n4)cnn23)o1 [Compound 9] |  | 8.44 |  |  | 7.29
Cc1ccc(-c2nc(N)nc3c(Cc4ccc(F)cc4F)cnn23)o1 [Compound 10] |  | 8.30 |  |  | 7.79
Cc1ccc(-c2nc(N)nc3c(Cc4ccc(F)cc4C)cnn23)o1 [Compound 11] |  | 7.41 |  |  | 6.38
Cc1ccc(-c2nc(N)nc3c(Cc4c(F)cc(F)cc4F)cnn23)o1 [Compound 12] |  | 8.82 |  |  | 8.42
Cc1ccc(-c2nc(N)nc3c(CC4CCCCC4)cnn23)o1 [Compound 13] |  | 8.24 |  |  | 
Cc1ccc(-c2nc(N)nc3c(CC4CCCC4)cnn23)o1 [Compound 14] |  | 7.98 |  |  | 
Cc1ccc(-c2nc(N)nc3c(CC4CCC4)cnn23)o1 [Compound 15] |  | 7.80 |  |  | 
COc1cccc(Cc2cnn3c(-c4ccc(C)o4)nc(N)nc23)n1 [Compound 16] |  | 8.64 |  |  | 7.73
Cc1ccc(-c2nc(N)nc3c(Cc4cccc(CO[C@H]5CCOC5)[n+]4[O-])cnn23)o1 [Compound 17] |  | 7.05 |  |  | 5.99
Cc1ccc(-c2nc(N)nc3c(Cc4cccc(CO[C@H]5CCOC5)n4)cnn23)o1 [Compound 18] | 6.97 |  | 8.04 |  | 

Compound | pIC50 (A2B receptor) | pIC50 (A2A receptor) | pIC50 (A2A receptor; [1]) | pIC50 (A2A receptor; read-out: A2A Antagonistic function IC50) | pIC50 (A2B receptor; [2])
Cc1ccc(-c2nc(N)nc3c(Cc4cccc(C(C)(C)O)n4)cnn23)o1 [Compound 19] | 7.15 | 8.77 |  |  | 
Cc1ccc(-c2nc(N)nc3c(Cc4cccc(NCc5ccccc5)n4)cnn23)o1 [Compound 20] | 7.59 | 8.26 |  |  | 
COCCNc1cccc(Cc2cnn3c(-c4ccc(C)o4)nc(N)nc23)n1 [Compound 21] |  | 8.33 |  |  | 7.44
Cc1ccc(-c2nc(N)nc3c(Cc4cccc(N)n4)cnn23)o1 [Compound 22] |  | 8.24 |  |  | 8.80
Nc1cccc(Cc2cnn3c(-c4ccco4)nc(N)nc23)n1 [Compound 23] |  | 7.34 |  |  | 7.89
Cc1ccc(-c2nc(N)nc3c(Cc4cccc(N)c4)cnn23)o1 [Compound 24] |  | 8.52 |  |  | 8.10
Nc1cccc(Cc2cnn3c(-c4ccco4)nc(N)nc23)c1 [Compound 25] |  | 7.46 |  |  | 7.22
Cc1ccc(-c2nc(N)nc3c(Cc4ccc(N)cc4)cnn23)o1 [Compound 26] |  | 7.76 |  |  | 8.57
Cc1ccc(-c2nc(N)nc3c(Cc4ccccc4N)cnn23)o1 [Compound 27] |  | 8.72 |  |  | 8.01
Cc1ccc(-c2nc(N)nc3c(Cc4cc(N)c(F)cc4F)cnn23)o1 [Compound 28] |  | 8.80 |  |  | 8.11
Cc1ccc(-c2nc(N)nc3c(Cc4ccc(N)c(C)c4)cnn23)o1 [Compound 29] |  | 8.26 |  |  | 7.82
Cc1ccc(-c2nc(N)nc3c(Cc4ccc(N)c(C)c4)c(C)nn23)o1 [Compound 30] |  | 8.30 |  |  | 
Cc1ccc(N)c(Cc2cnn3c(-c4ccc(C)o4)nc(N)nc23)c1 [Compound 44] |  | 8.21 |  |  | 6.81
Cc1ccc(-c2nc(N)nc3c(Cc4cccc(N)c4)c(C)nn23)o1 [Compound 45] |  | 8.72 |  |  | 8.21
Cc1ccc(-c2nc(N)nc3c(Cc4cccc(N)c4)c(Cl)nn23)o1 [Compound 46] |  | 8.82 |  |  | 8.34
Cc1ccc(-c2nc(N)nc3c(Cc4cccc(N)c4)c(F)nn23)o1 [Compound 47] |  | 8.85 |  |  | 8.40
Cn1ccc(-c2nc(N)nc3c(Cc4cccc(N)c4)cnn23)n1 [Compound 48] |  | 7.54 |  |  | 7.08
